Laboratory results reported in patent US20250079000A1, “METHODS AND MARKERS FOR DIAGNOSIS OF PARKINSON'S DISEASE” (Berg LLC, priority 2021, published 2025).

How the values were obtained:
[1] = NCAM short-term stability in plasma QC samples; type: in vitro ADME, human; settings: HQC, MQC, LQC; 4° C. and 24° C.; 2, 4 and 24 hours; acceptance criteria −25% to 25%
Protocol: In the short-term stability test, three levels of QC samples were thawed from the −80° C. freezer and incubated at 4° C. or RT (18-24° C.) for 2, 4 or 24 h. The samples were then assayed and compared with samples freshly thawed from the −80° C. freezer and assayed along with the samples incubated at different conditions on the day of the assay.
Precision analyses were performed at high, medium and low concentrations (HQC, MQC, and LQC, respectively). For each concentration, twelve experiments were performed. […] Accuracy analyses were performed at two concentrations of NCAM: 10,000 pg/mL and 2,000 pg/mL. Five experiments were performed at each concentration. Recovery percentages for all experiments at both concentrations (FIG. 28C) were within the acceptance criteria of greater than or equal to 80% and less than or equal to 120%. Parallelism analyses were performed using six individual plasma samples at four dilutions. Recovery percentages (FIG. 28D) were within the acceptance criteria of greater than or equal to 75% and less than or equal to 125% for all samples tested at each of the four dilutions. Short-term stability analyses were performed at two temperatures: 4° C. and 24° C. For each temperature, high, medium and low concentration samples (HQC, MQC, and LQC, respectively) were maintained at 2 hours, 4 hours, and 24 hours.

[2] = Stability of NAP spiked in human plasma (short-term, long-term, freeze-thaw, re-injection); type: in vitro ADME
Excerpt: (§1) Detection and Quantitation of NAP using LC-MS/MS. To quantify NAP in human K2-EDTA plasma, the quantification method using LC-MS/MS was developed. Due to low circulating levels of NAP, the sensitivity of quantification was improved using derivatization of isobutyl chloroformate in the sample preparation. The validation performance of the NAP assay is summarized in Table 8-15, including linearity, precision, matrix effect, system suitability, short-term stability, long-term stability, and reproducibility in the autosampler. […] The results of validation assessed by QCs met acceptance criteria (Table 9-15).

[3] = Short-term and long-term stability of NAP spiked in 2.5% BSA standard solution; type: physicochemical; settings: for Bias %, long-term stability: LTS (88 days, −80 C.); for Bias %, short-term stability: STS (24 hrs, 5 C.)
Excerpt: as §1

[4] = HQC, expected value 54.2 ng/mL, acceptable range 27.8-80.7
[5] = LQC, expected value 3.2 ng/mL, acceptable range 2.33-4.03

P13591 (NCAM): Neural Cell Adhesion Molecule 1, cell adhesion protein, Uniprot P13591
Short-term stability of plasma samples [1]: within acceptance criteria

CC(=O)NCCCCN [NAP, N-acetyl putrescine]
Mean concentration, freeze-thaw stability (4x) [2, 4]: 42.4 ng/mL
Mean concentration, long-term stability (84 days, −80° C.) [2, 4]: 63.4 ng/mL
Mean concentration, re-injection stability in autosampler (8 days) [2, 4]: 46.5 ng/mL
Mean concentration, short-term stability (24 h, RT) [2, 4]: 41.0 ng/mL
Mean concentration, freeze-thaw stability (4x) [2, 5]: 3.1 ng/mL
Mean concentration, long-term stability (84 days, −80° C.) [2, 5]: 3.2 ng/mL
Mean concentration, re-injection stability in autosampler (8 days) [2, 5]: 3.2 ng/mL
Mean concentration, short-term stability (24 h, RT) [2, 5]: 3.1 ng/mL
Bias %, long-term stability ([3]; L1, 1.0 ng/mL): 10.6%
Bias %, long-term stability ([3]; L8, 85.0 ng/mL): −8.1%
Bias %, short-term stability ([3]; L1, 1.0 ng/mL): −3.6%
Bias %, short-term stability ([3]; substock, 2000 ng/mL): −6.7%
